Paper PMC11649115, “In vitro safety evaluation of dopamine D3R antagonist, R-VK4-116, as a potential medication for the treatment of opioid use disorder” (PLOS ONE, 2024)

Assays:
[1] = Metabolic stability in liver microsomes; settings: rat, pH 7.4
D3R = tested on: D3R; parameters: method as in PMID 31526003; settings: read-out: antagonist effect on D3R (IC50); cited from earlier work
CYP2D6 = CYP2D6 (Homo sapiens, UniProt P10635); test: CYP inhibition in human liver microsomes; settings: human liver microsomes
Sequence of CYP2D6 (P10635 whole entry): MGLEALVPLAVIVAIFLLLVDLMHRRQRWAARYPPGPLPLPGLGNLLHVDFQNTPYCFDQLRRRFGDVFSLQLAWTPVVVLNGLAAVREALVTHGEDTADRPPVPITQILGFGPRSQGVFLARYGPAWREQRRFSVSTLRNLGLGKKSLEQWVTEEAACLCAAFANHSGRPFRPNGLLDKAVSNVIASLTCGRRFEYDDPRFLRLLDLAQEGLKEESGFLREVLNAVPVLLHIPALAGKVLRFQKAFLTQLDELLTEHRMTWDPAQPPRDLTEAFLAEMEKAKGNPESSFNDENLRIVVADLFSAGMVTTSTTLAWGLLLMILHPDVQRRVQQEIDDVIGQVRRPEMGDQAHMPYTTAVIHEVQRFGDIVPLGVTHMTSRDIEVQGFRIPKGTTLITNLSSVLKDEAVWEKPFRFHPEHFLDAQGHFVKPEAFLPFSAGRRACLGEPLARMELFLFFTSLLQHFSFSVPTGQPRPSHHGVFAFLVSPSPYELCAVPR

[2] = Metabolic stability in liver microsomes; settings: monkey, pH 7.4
CYP3A4 = CYP3A4 (Homo sapiens, UniProt P08684); test: in vitro; settings: microsomes
Sequence of CYP3A4 (P08684 2-503): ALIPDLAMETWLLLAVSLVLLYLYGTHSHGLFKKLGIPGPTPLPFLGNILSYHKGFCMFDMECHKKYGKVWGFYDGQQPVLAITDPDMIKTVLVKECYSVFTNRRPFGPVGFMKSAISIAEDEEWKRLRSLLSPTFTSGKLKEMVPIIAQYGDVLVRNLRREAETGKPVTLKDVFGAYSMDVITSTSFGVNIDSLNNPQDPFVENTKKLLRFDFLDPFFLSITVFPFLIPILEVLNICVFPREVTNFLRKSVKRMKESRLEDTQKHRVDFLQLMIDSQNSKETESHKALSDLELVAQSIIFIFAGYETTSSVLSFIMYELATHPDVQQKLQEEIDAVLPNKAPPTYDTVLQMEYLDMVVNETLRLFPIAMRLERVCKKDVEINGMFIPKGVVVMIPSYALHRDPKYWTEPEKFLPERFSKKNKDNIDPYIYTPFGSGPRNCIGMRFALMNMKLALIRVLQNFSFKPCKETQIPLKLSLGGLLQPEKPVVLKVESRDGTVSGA

[3] = Metabolic stability in liver microsomes; settings: dog, pH 7.4
[4] = Metabolite identification in liver microsomes; type: in vitro ADME; settings: 10 μM R-VK4-116, 120 min
Method: Reactions were stopped by removing 100 μl aliquots at 120 min and mixing with 200 μl of acetonitrile. Following brief vortexing and centrifugation, the supernatant was transferred to an HPLC vial fitted with a 300 μl glass insert for metabolite analysis using a Sciex 4000QTrap mass spectrometer.

CYP2B6 = test: CYP induction, in situ catalytic activity, human hepatocytes
Text: Rifampicin as a positive control and solvent (0.1% DMSO) vehicle control were also included. The acceptance criteria for CYP induction was ≥ 2-fold induction for significant CYP activity, while the acceptance criteria for CYP mRNA was ≥ 4-fold for significant CYP induction.

OAT3 = molecular target: T1, OAT3 (Homo sapiens, UniProt Q8TCC7); test: Transporter mediated assay (substrate/inhibitor), MDCK-II cells; type: in vitro ADME
T1 construct: expressed in transfected cells; host or cells: MDCK-II cells
T1 sequence (Q8TCC7 1-542): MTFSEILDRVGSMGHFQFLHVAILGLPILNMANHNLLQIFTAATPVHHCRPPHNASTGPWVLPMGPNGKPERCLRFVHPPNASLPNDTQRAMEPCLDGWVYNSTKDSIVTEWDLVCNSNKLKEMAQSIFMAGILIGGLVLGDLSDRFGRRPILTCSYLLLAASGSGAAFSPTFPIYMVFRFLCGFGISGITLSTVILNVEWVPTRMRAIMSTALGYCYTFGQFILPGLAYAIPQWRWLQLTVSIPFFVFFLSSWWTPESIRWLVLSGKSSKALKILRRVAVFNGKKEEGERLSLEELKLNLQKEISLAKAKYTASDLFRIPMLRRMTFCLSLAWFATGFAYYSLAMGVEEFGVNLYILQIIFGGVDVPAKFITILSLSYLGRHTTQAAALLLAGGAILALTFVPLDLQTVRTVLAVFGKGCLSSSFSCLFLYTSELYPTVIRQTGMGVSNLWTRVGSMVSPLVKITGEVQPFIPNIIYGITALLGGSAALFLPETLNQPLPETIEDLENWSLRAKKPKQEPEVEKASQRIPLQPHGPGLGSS
Method: The MDCK-II cells were treated to express the transporter of interest. The transport of each probe substrate was determined by radiometric detection (Fig 1 in S1 File). […] For the uptake assay, the net transporter-mediated uptake-rate (V) of the substrate by each SLC transporter was calculated as follows: Transporter–mediatedupdaterate(pmol/min/cm^2)=(Cellularaccumulationincellsexpressingthetransporter)−(Meancellularaccumulationincontrolcells)/Surfacearea×incubationtime
Fold of activity and percent inhibition were determined as follows: Foldofactivity=(Meanuptakerate)transporterexpressingcells/(Meanuptakerate)controlcells Percentinhibition=100−100×(Transport‐mediatedupdaterate)withinhibitor/(Transport‐mediatedupdaterate)vehiclecontrol

[5] = heat-inactivated liver microsomes
[6] = CYP activity (% of Control) 3A4 (Midazolam)
[7] = CYP activity (% of Control) 3A4 (Testosterone)

Work on CCc1cc(Cl)c(OC)c(N2CCN(CC(O)CCNC(=O)c3cc4ccccc4[nH]3)CC2)c1 (stereo not drawn) [R-VK4-116, N-(4-(4-(3-chloro-5-ethyl-2-methoxyphenyl)piperazin-1-yl)-3-hydroxybutyl)-1H-indole-2-carboxamide] yielded a remaining at 0 h, 1 μM [1, 5] of 100%, a remaining at 0 h, 10 μM [1, 5] of 100% and a remaining at 2 h, 1 μM [1, 5] of 94.9%. The remaining at 2 h, 10 μM [1, 5] was 95.4%, the remaining at 0 h, 1 μM ([1]; liver microsomes) was 100% and the remaining at 0 h, 10 μM ([1]; liver microsomes) was 100%. For the same molecule, the remaining at 0.5 h, 1 μM ([1]; liver microsomes) was 79.4%, the remaining at 0.5 h, 10 μM ([1]; liver microsomes) was 87.1% and the remaining at 1 h, 1 μM ([1]; liver microsomes) was 56.8%. The remaining at 1 h, 10 μM ([1]; liver microsomes) was 79.7%, the remaining at 1.5 h, 1 μM ([1]; liver microsomes) was 45.5% and the remaining at 1.5 h, 10 μM ([1]; liver microsomes) was 73.3%. For the same molecule, the remaining at 2 h, 1 μM ([1]; liver microsomes) was 37.5%, the remaining at 2 h, 10 μM ([1]; liver microsomes) was 69.4% and the IC50 (D3R) was 0.35 µM. The CYP2D6 inhibition (CYP2D6; up to 100 μM) was “did not inhibit CYP significantly”, the activity at 20 min, 0.1 µM (CYP2D6; human, probe bufuralol) was 92.6 ± 9% and the activity at 20 min, 0.3 µM (CYP2D6; human, probe bufuralol) was 86.1 ± 4%. The activity at 20 min, 1 µM (CYP2D6; human, probe bufuralol) was 84.3 ± 3.7%, the activity at 20 min, 3 µM (CYP2D6; human, probe bufuralol) was 92.1 ± 6.8% and the activity at 20 min, 10 µM (CYP2D6; human, probe bufuralol) was 94.7 ± 6.5%. The activity at 20 min, 30 µM (CYP2D6; human, probe bufuralol) was 83.1 ± 1.6%, the activity at 20 min, 60 µM (CYP2D6; human, probe bufuralol) was 84.5 ± 1.8% and the activity at 20 min, 100 µM (CYP2D6; human, probe bufuralol) was 95 ± 7.5%. For the same molecule, the remaining at 0 h, 1 μM [2, 5] was 100%, the remaining at 0 h, 10 μM [2, 5] was 100% and the remaining at 2 h, 1 μM [2, 5] was 90%. The remaining at 2 h, 10 μM [2, 5] was 89.9%, the remaining at 0 h, 1 μM ([2]; liver microsomes) was 100% and the remaining at 0 h, 10 μM ([2]; liver microsomes) was 100%. For the same molecule, the remaining at 0.5 h, 1 μM ([2]; liver microsomes) was 32%, the remaining at 0.5 h, 10 μM ([2]; liver microsomes) was 60.1% and the remaining at 1 h, 1 μM ([2]; liver microsomes) was 21.2%. For the same molecule, the remaining at 1 h, 10 μM ([2]; liver microsomes) was 46.5%, the remaining at 1.5 h, 1 μM ([2]; liver microsomes) was 17.5% and the remaining at 1.5 h, 10 μM ([2]; liver microsomes) was 42.1%. For the same molecule, the remaining at 2 h, 1 μM ([2]; liver microsomes) was 15%, the remaining at 2 h, 10 μM ([2]; liver microsomes) was 39.7% and the activity at 20 min, 0.1 µM (CYP3A4; [6]) was 97.5 ± 3.9%. For the same molecule, the activity at 20 min, 0.3 µM (CYP3A4; [6]) was 93.9 ± 2.4%, the activity at 20 min, 1 µM (CYP3A4; [6]) was 95.3 ± 0.9% and the activity at 20 min, 3 µM (CYP3A4; [6]) was 95.6 ± 4.2%. For the same molecule, the activity at 20 min, 10 µM (CYP3A4; [6]) was 96.9 ± 2%, the activity at 20 min, 30 µM (CYP3A4; [6]) was 92.2 ± 0.7% and the activity at 20 min, 60 µM (CYP3A4; [6]) was 92.6 ± 1%. The activity at 20 min, 100 µM (CYP3A4; [6]) was 96.9 ± 3.2%, the activity at 20 min, 0.1 µM (CYP3A4; [7]) was 96.5 ± 3.6% and the activity at 20 min, 0.3 µM (CYP3A4; [7]) was 93.2 ± 3.8%. For the same molecule, the activity at 20 min, 1 µM (CYP3A4; [7]) was 94.2 ± 2.4%, the activity at 20 min, 3 µM (CYP3A4; [7]) was 92.8 ± 4.8% and the activity at 20 min, 10 µM (CYP3A4; [7]) was 93.9 ± 2.1%. It also gave an activity at 20 min, 30 µM (CYP3A4; [7]) of 94.2 ± 1.5%, an activity at 20 min, 60 µM (CYP3A4; [7]) of 92.1 ± 1.1% and an activity at 20 min, 100 µM (CYP3A4; [7]) of 95.5 ± 3.7%. The remaining at 0 h, 1 μM [3, 5] was 100%, the remaining at 0 h, 10 μM [3, 5] was 100% and the remaining at 2 h, 1 μM [3, 5] was 90.7%. For the same molecule, the remaining at 2 h, 10 μM [3, 5] was 90.6%, the remaining at 0 h, 1 μM ([3]; liver microsomes) was 100% and the remaining at 0 h, 10 μM ([3]; liver microsomes) was 100%. For the same molecule, the remaining at 0.5 h, 1 μM ([3]; liver microsomes) was 44.6%, the remaining at 0.5 h, 10 μM ([3]; liver microsomes) was 74.3% and the remaining at 1 h, 1 μM ([3]; liver microsomes) was 22.5%. It also gave a remaining at 1 h, 10 μM ([3]; liver microsomes) of 64.5%, a remaining at 1.5 h, 1 μM ([3]; liver microsomes) of 22.3% and a remaining at 1.5 h, 10 μM ([3]; liver microsomes) of 55.6%. The remaining at 2 h, 1 μM ([3]; liver microsomes) was 19.7%, the remaining at 2 h, 10 μM ([3]; liver microsomes) was 49.9% and the “% Area” value ([4]; dog liver microsomes, MRM product ion 116.1) was 10.4%. For the same molecule, the “% Area” value ([4]; dog liver microsomes, MRM product ion 144.1) was 28.6%, the “% Area” value ([4]; human liver microsomes, MRM product ion 116.1) was 62.4% and the “% Area” value ([4]; human liver microsomes, MRM product ion 144.1) was 4.1%. The “% Area” value ([4]; rat liver microsomes, MRM product ion 116.1) was 8.2%, the “% Area” value ([4]; rat liver microsomes, MRM product ion 144.1) was 86.1% and the “Fold of Vehicle Control (CYP2B6 activity, bupropion hydroxylation)” value (“Fold of Vehicle Control” below) (CYP2B6; hepatocyte Lot 336, 0.01 µM) was 1.2 fold. For the same molecule, the “Fold of Vehicle Control” value (CYP2B6; hepatocyte Lot 336, 0.1 µM) was 1.1 fold, the “Fold of Vehicle Control” value (CYP2B6; hepatocyte Lot 336, 1 µM) was 1.1 fold and the “Fold of Vehicle Control” value (CYP2B6; hepatocyte Lot 336, 3 µM) was 1.1 fold. For the same molecule, the “Fold of Vehicle Control” value (CYP2B6; hepatocyte Lot 336, 5 µM) was 1.1 fold, the “Bupropion Hydroxylation” value (CYP2B6; hepatocyte Lot 336, 10 µM) was 0.97 pmol/min/106 cells and the “Fold of Vehicle Control” value (CYP2B6; hepatocyte Lot 336, 10 µM) was 1.1 fold. For the same molecule, the “Bupropion Hydroxylation” value (CYP2B6; hepatocyte Lot 348B, 0.01 µM) was 5.0 pmol/min/106 cells, the “Fold of Vehicle Control” value (CYP2B6; hepatocyte Lot 348B, 0.01 µM) was 1.1 fold and the “Bupropion Hydroxylation” value (CYP2B6; hepatocyte Lot 348B, 0.1 µM) was 4.5 pmol/min/106 cells. For the same molecule, the “Fold of Vehicle Control” value (CYP2B6; hepatocyte Lot 348B, 0.1 µM) was 1.0 fold, the “Bupropion Hydroxylation” value (CYP2B6; hepatocyte Lot 348B, 1 µM) was 4.5 pmol/min/106 cells and the “Fold of Vehicle Control” value (CYP2B6; hepatocyte Lot 348B, 1 µM) was 1.0 fold. The “Bupropion Hydroxylation” value (CYP2B6; hepatocyte Lot 348B, 3 µM) was 4.1 pmol/min/106 cells, the “Fold of Vehicle Control” value (CYP2B6; hepatocyte Lot 348B, 3 µM) was 0.94 fold and the “Bupropion Hydroxylation” value (CYP2B6; hepatocyte Lot 348B, 5 µM) was 3.8 pmol/min/106 cells. The “Fold of Vehicle Control” value (CYP2B6; hepatocyte Lot 348B, 5 µM) was 0.85 fold, the “Bupropion Hydroxylation” value (CYP2B6; hepatocyte Lot 348B, 10 µM) was 3.9 pmol/min/106 cells and the “Fold of Vehicle Control” value (CYP2B6; hepatocyte Lot 348B, 10 µM) was 0.89 fold. For the same molecule, the “Fold of Vehicle Control” value (CYP2B6; hepatocyte Lot 399, 0.01 µM) was 1.0 fold, the “Fold of Vehicle Control” value (CYP2B6; hepatocyte Lot 399, 0.1 µM) was 1.0 fold and the “Fold of Vehicle Control” value (CYP2B6; hepatocyte Lot 399, 1 µM) was 1.1 fold. The “Fold of Vehicle Control” value (CYP2B6; hepatocyte Lot 399, 3 µM) was 1.2 fold, the “Fold of Vehicle Control” value (CYP2B6; hepatocyte Lot 399, 5 µM) was 1.1 fold and the “Fold of Vehicle Control” value (CYP2B6; hepatocyte Lot 399, 10 µM) was 1.1 fold. For the same molecule, the “fold difference in mean uptake rate (substrate test)” value (OAT3; OAT3, 1 μM, transporter cells vs control cells) was < 2 fold, the “Inhibition (%)” value (OAT3; OAT3, 0.1% BSA, 10 μM) was “no statistically significant inhibition” and the inhibition at 10 µM (OAT3; human, polarized monolayer of MDCK-II cells expressing OAT3, OAT3, 0.1% BSA, 10 μM) was -5.73 ± 8.06%.
